This passage reports Activity results from ChEMBL document CHEMBL4706675, “Ulmusakidian, a new coumarin glycoside and antifungal phenolic compounds from the root bark of Ulmus davidiana var. japonica” (2021).

The source made the active and inactive calls. The rule behind the calls is not given here.

In this experiment the test system is Candida albicans. Kind of experiment: Antifungal activity against Candida albicans assessed as fungal growth inhibition. Format: functional, organism-based.

`COc1cc(C(=O)OC[C@H]2O[C@@H](Oc3c(O)c(OC)cc4ccc(=O)oc34)[C@H](O)[C@@H](O)[C@@H]2O)cc(OC)c1O`: the outcome was inactive.

`COc1ccc(-c2cc(=O)c3c(OC)cc(OC)cc3o2)cc1`: the result was inactive.

Regarding `COc1ccc(-c2oc3cc(OC)cc(OC)c3c(=O)c2OC)cc1`, the outcome was inactive.

With `COc1cc(O)c2c(=O)c(O[C@@H]3O[C@@H](C)[C@H](O)[C@@H](O)[C@H]3O)c(-c3ccc(O)c(O)c3)oc2c1`, the outcome was inactive.

Take `COc1cc2c(cc1O)[C@H](c1cc(OC)c(O)c(OC)c1)[C@@H](COC1OC[C@@H](O)[C@H](O)[C@H]1O)[C@H](CO)C2` (stereo not given in full): the outcome was inactive.

For the compound `COc1cc([C@@H]2Oc3c(OC)cc(CCCO)cc3[C@H]2CO)ccc1O[C@@H]1O[C@@H](C)[C@H](O)[C@@H](O)[C@H]1O`, the outcome was inactive.

With `COc1cc(C(=O)OC[C@H]2O[C@@H](Oc3c(O)c(OC)cc4ccc(=O)oc34)[C@H](O)[C@@H](O)[C@@H]2O)ccc1O`, the outcome was inactive.

For `COc1cc(C[C@@H](CO)[C@H](COC2OC[C@@H](O)[C@H](O)[C@H]2O)Cc2cc(OC)c(O)c(OC)c2)cc(OC)c1O` (stereo not given in full), the outcome was inactive.

In the case of `COc1cc([C@H]2c3cc(O)c(OC)cc3C[C@@H](CO)[C@@H]2COC2OC[C@@H](O)[C@H](O)[C@H]2O)ccc1O` (stereo not given in full), the result was inactive.

On to `COc1ccc(-c2cc(=O)c3c(O)cc(O)cc3o2)cc1`, for which the result was inactive.
